Twelve molecules from patent US12180192B2, “Modulators of THR-β and methods of use thereof” (ALIGOS THERAPEUTICS, INC., priority 2019, dated 2024) can be followed below.

Molecules are shown by their SMILES.

The target in test [1] is T1, human thyroid receptor beta ligand-binding domain (LBD) (Homo sapiens, UniProt P10828).
T1 construct: purchased Invitrogen
T1 sequence (P10828 217-461 limits assumed): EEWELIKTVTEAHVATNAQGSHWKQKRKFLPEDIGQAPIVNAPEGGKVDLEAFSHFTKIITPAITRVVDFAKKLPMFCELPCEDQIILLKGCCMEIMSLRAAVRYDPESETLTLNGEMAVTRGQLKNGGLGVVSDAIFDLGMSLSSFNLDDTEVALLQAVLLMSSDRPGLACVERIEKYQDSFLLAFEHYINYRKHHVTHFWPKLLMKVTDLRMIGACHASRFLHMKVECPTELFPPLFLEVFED
The experiment in a line: TR-FRET thyroid receptor beta coactivator assay (THR biochemical assay, Assay 1). Conditions: for EC50: THR-beta, TR-FRET coactivator assay, read-out: Activity category Assay 1 (EC50, THR-beta agonist); for Emax: Table 5, Assay 1, THRβ, read-out: Activity category Assay 1 THRβ (Emax). Summed up:
(§1)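 Agonist-driven coactivator recruitment measured by TR-FRET: terbium anti-GST antibody (2 nM) bound to GST-LBD of TRβ or TRα (1 nM final, stated for β), with fluorescein SRC2-2 peptide at 200 nM. Compounds at 1% DMSO. Read after 1 h, room temperature, protected from light.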

The target of test [2] is T2, THR beta (Homo sapiens, UniProt P10828).
T2 construct: expressed in transfected cells; host or cells: HEK293T (ATCC CRL-3216)
T2 sequence (P10828 1-461): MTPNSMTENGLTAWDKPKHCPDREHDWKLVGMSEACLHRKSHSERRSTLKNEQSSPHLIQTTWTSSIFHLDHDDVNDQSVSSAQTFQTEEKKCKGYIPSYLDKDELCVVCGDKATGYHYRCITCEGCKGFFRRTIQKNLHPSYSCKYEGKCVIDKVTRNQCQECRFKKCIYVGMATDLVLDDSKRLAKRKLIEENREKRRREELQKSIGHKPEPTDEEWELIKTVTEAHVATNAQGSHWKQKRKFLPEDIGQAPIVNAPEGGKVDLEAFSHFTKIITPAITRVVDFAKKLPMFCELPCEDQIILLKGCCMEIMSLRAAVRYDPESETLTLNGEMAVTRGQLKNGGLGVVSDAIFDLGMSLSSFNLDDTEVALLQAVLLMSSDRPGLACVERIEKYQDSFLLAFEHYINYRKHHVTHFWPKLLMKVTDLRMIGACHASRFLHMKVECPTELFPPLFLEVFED
T2 sequence (P19793 1-462 partner): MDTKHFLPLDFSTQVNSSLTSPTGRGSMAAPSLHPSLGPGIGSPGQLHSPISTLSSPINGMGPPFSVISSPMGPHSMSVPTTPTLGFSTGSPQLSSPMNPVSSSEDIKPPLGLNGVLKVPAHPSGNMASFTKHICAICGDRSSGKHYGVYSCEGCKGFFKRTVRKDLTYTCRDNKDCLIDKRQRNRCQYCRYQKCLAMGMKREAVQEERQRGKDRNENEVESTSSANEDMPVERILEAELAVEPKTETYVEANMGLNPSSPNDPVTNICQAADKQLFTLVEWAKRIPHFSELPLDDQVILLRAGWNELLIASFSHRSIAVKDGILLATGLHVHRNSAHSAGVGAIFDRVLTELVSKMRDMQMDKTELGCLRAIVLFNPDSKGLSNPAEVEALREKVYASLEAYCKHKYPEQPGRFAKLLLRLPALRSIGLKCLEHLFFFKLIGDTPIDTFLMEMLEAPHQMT
The experiment in a line: HEK293T THR beta/RXR luciferase reporter assay (Assay 2). The class given is cell-based. The settings on record: for Emax: HEK-293T, Table 5, Assay 2, THRβ, read-out: Activity category Assay 2 THRβ (Emax); for EC50: THR-beta, HEK293T reporter assay, read-out: Activity category Assay 2 (EC50, THR-beta agonist). An outline of the steps:
(§2)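 Compounds tested as ten-point five-fold dilution series for 18-24 h on transiently transfected HEK293T cells carrying TRE-driven luciferase plus RXR and either THR alpha or beta expression plasmids. Read-out by One-Glo luminescence, expressed as percent agonism relative to negative and positive controls.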
(In general: A reporter such as luciferase makes a cellular process visible.)

The target in test [3] is T3, THR alpha (Homo sapiens, UniProt P10827).
T3 construct: expressed in transfected cells; host or cells: HEK293T (ATCC CRL-3216)
T3 sequence (P10827 1-410 isoform P10827-2): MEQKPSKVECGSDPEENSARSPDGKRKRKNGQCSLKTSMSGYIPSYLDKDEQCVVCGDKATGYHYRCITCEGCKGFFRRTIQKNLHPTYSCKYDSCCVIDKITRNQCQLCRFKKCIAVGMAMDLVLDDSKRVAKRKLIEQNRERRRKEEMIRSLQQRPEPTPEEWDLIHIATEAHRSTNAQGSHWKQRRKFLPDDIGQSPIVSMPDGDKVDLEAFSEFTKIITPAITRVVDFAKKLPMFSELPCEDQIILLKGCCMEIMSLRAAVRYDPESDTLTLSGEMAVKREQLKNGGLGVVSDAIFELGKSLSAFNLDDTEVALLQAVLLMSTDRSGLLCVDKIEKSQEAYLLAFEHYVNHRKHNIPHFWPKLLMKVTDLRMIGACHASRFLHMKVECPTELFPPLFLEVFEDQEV
T3 sequence (P19793 1-462 partner): T2 sequence (P19793 1-462 partner)
Put plainly: HEK293T THR alpha/RXR luciferase reporter assay (Assay 2). The class given is cell-based. Conditions: Assay 2; for Emax: HEK-293T, Table 5, THRα, read-out: Activity category Assay 2 THRα (Emax); for EC50: Table 4, THR-alpha, read-out: Activity category Assay 2 (EC50, THR-alpha agonist activity). Summed up: as §2

Test [4] has as its target T4, human thyroid receptor alpha ligand-binding domain (LBD) (Homo sapiens, UniProt P10827).
T4 construct: purchased Invitrogen
The experiment in a line: TR-FRET thyroid receptor alpha coactivator assay (THR biochemical assay, Assay 1). The settings on record: for EC50: Table 4, THR-alpha, read-out: Activity category Assay 1 (EC50, THR-alpha agonist activity); for Emax: Table 5, THRα, read-out: Activity category Assay 1 THRα (Emax). Summed up: as §1

With `Nc1nn(-c2cc(Cl)c(Oc3cc(-c4ccc5ncccc5c4)c(=O)[nH]n3)c(Cl)c2)c(=O)[nH]c1=O` [Compound 128], the EC50 (commonly the concentration that produces a half-maximal response) is over 25 µM in test [1], over 10 µM in test [2], over 10 µM in test [3] and over 25 µM in test [4]. Besides, the Emax in test [1], in test [2], in test [3] and in test [4] was under 50% each time.
Regarding `Nc1nn(-c2cc(Cl)c(Oc3n[nH]c(=O)cc3-c3cc4ccccc4cn3)c(Cl)c2)c(=O)[nH]c1=O` [Compound 134], the EC50 in test [1] was under 0.05 µM; in test [2], 0.25 to 1 µM; in test [3], over 10 µM; in test [4], 0.25 to 1 µM. The Emax – broadly, the size of the effect at its maximum, as opposed to the concentration needed – in test [1] was under 50%; in test [2], 50 to 75%; in test [3], under 50%; in test [4] it was under 50%.
In the case of `Cc1cccc(-c2cc(Oc3c(Cl)cc(-n4ncc(=O)[nH]c4=O)cc3Cl)n[nH]c2=O)c1` [Compound 139], the EC50 in test [1] is 0.05 to 0.25 µM; in test [2], under 0.05 µM; in test [3], 0.05 to 0.25 µM; in test [4], 0.05 to 0.25 µM. Moreover, the Emax in test [1] was under 50%; in test [2], 50 to 75%; in test [3] it was under 50%; in test [4], under 50%.
As to `Nc1nn(-c2cc(Cl)c(Oc3ccc4c(c3)C3(CC3)C(=O)N4)c(Cl)c2)c(=O)[nH]c1=O` [Compound 143], the EC50 in test [1], in test [2], in test [3] and in test [4] was under 0.05 µM throughout. The Emax in test [1] is 50 to 75%; in test [2], over 75%; in test [3], over 75%; in test [4], over 75%.
Regarding `Nc1nn(-c2cc(Cl)c(Oc3cc(C4(F)CCCC4)c(=O)[nH]n3)c(Cl)c2)c(=O)[nH]c1=O` [Compound 144, 6-amino-2-(3,5-dichloro-4-[[5-(1-fluorocyclopentyl)-6-oxo-1H-pyridazin-3-yl]oxy]phenyl)-4H-1,2,4-triazine-3,5-dione], the EC50 in test [1] was 0.05 to 0.25 µM; in test [2] it was 0.25 to 1 µM; in test [3], 1 to 10 µM; in test [4], 0.25 to 1 µM. Moreover, the Emax was under 50% in test [1], 50 to 75% in test [2], 50 to 75% in test [3] and under 50% in test [4].
Take `CC(C)/C=C1\C(=O)Nc2ccc(Oc3c(Cl)cc(-n4nc(N)c(=O)[nH]c4=O)cc3Cl)cc21` [Compound 147, 6-amino-2-[3,5-dichloro-4-[(3Z)-3-(2-methylpropylidene)-2-oxo-indolin-5-yl]oxy-phenyl]-1,2,4-triazine-3,5-dione]: the EC50 in test [1], in test [2], in test [3] and in test [4] was under 0.05 µM each time. For the same molecule, the Emax is 50 to 75% in test [1], over 75% in test [2], over 75% in test [3] and under 50% in test [4].
On to `Cc1cc(-n2nc(N)c(=O)[nH]c2=O)cc(C)c1Cc1ccc2[nH]c(=O)n(C(C)C)c2c1` [Compound 149, 6-amino-2-(4-((3-isopropyl-2-oxo-2,3-dihydro-1H-benzo[d]imidazol-5-yl)methyl)-3,5-dimethylphenyl)-1,2,4-triazine-3,5(2H,4H)-dione], for which the EC50 in test [1], in test [2], in test [3] and in test [4] was under 0.05 µM throughout. Besides, the Emax in test [1] is under 50%; in test [2], over 75%; in test [3], over 75%; in test [4], under 50%.
`Cc1cc(-n2nc(N)c(=O)[nH]c2=O)cc(C)c1Cc1ccc2c(c1)C1(CCCC1)C(=O)N2` [Compound 150, 6-Amino-2-(3,5-dimethyl-4-((2′-oxospiro[cyclopentane-1,3′-indolin]-5′-yl)methyl)phenyl)-1,2,4-triazine-3,5(2H,4H)-dione]: the EC50 in test [1], in test [2], in test [3] and in test [4] was under 0.05 µM each time. For the same molecule, the Emax in test [1] is under 50%; in test [2], 50 to 75%; in test [3] it was 50 to 75%; in test [4], under 50%.
For the molecule `Cc1cc(-n2ncc(=O)[nH]c2=O)cc(C)c1Cc1ccc2c(c1)C1(CC1)C(=O)N2` [Compound 152, 2-(3,5-dimethyl-4-((2′-oxospiro[cyclopropane-1,3′-indolin]-5′-yl)methyl)phenyl)-1,2,4-triazine-3,5(2H,4H)-dione], the EC50 in test [1], in test [2], in test [3] and in test [4] was under 0.05 µM throughout. Also, the Emax in test [1] was under 50%; in test [2] it was 50 to 75%; in test [3] it was 50 to 75%; in test [4], 50 to 75%.
Regarding `Cc1cc2cc(Oc3c(Cl)cc(-n4nc(C#N)c(=O)[nH]c4=O)cc3Cl)ccc2[nH]c1=O` [Compound 154, 2-[3,5-dichloro-4-[(3-methyl-2-oxo-1H-quinolin-6-yl)oxy]phenyl]-3,5-dioxo-1,2,4-triazine-6-carbonitrile], the EC50 in test [1] was 0.05 to 0.25 µM; in test [2], over 10 µM; in test [4], over 25 µM. For the same molecule, the Emax in test [1], in test [3] and in test [4] was under 50% each time.
Consider `Nc1nn(-c2cc(Cl)c(Oc3cc(C4Cc5ccccc5C4)c(=O)[nH]n3)c(Cl)c2)c(=O)[nH]c1=O` [Compound 155], for which the EC50 in test [1] is 0.05 to 0.25 µM; in test [2], 0.25 to 1 µM; in test [3] it was over 10 µM; in test [4] it was over 25 µM. Besides, the Emax in test [1], in test [2], in test [3] and in test [4] was under 50% each time.
Regarding `Nc1nn(-c2cc(Cl)c(Oc3cc(C4CCc5ccccc54)c(=O)[nH]n3)c(Cl)c2)c(=O)[nH]c1=O` (stereo not shown) [Compound 156, 6-amino-2-(3,5-dichloro-4-[[5-(2,3-dihydro-1H-inden-1-yl)-6-oxo-1H-pyridazin-3-yl]oxy]phenyl)-4H-1,2,4-triazine-3,5-dione], the EC50 in test [1] is under 0.05 µM; in test [2], 0.05 to 0.25 µM; in test [3] it was 1 to 10 µM; in test [4], 0.05 to 0.25 µM. The Emax in test [1] was under 50%; in test [2], 50 to 75%; in test [3], under 50%; in test [4] it was under 50%.
